# Results reported in the supplement of paper PMC10307832.
# Legend:
# Experiment in all cases: relative viability (nuclei count vs DMSO), 5 days (fraction); higher = more cells survive
# NCI-H1437 = test system: NCI-H1437
# Method in brief: (§1)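 Lung cancer cell lines in 1536-well plates got either a single drug or a fixed anchor-drug dose together with five library-drug doses (not always all listed) in √10 steps, by pin tool, on the day after seeding. Nuclei were counted after 5 days, and relative viability is the treated-to-vehicle ratio of nuclei counts. Values are medians of duplicate plates.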
# A549 = test system: A549
# Method in brief: as §1
# Calu-6 = test system: Calu-6
# Method in brief: as §1
# IA-LM = test system: IA-LM
# Method in brief: as §1
# NCI-H1703 = test system: NCI-H1703
# Method in brief: as §1
# NCI-H1355 = test system: NCI-H1355
# Method in brief: as §1
# LCLC-97TM1 = test system: LCLC-97TM1
# Method in brief: as §1
# NCI-H596 = test system: NCI-H596
# Method in brief: as §1
# EBC-1 = test system: EBC-1
# Method in brief: as §1
# NCI-H1299 = test system: NCI-H1299
# Method in brief: as §1
structure (smiles),measurement,setting,value
CCNC(=O)c1noc(-c2cc(C(C)C)c(O)cc2O)c1-c1ccc(CN2CCOCC2)cc1 [Luminespib] + CS(=O)(=O)N1CCN(Cc2cc3nc(-c4cccc5[nH]ncc45)nc(N4CCOCC4)c3s2)CC1 [Pictilisib] (partner 1 µM),relative viability,NCI-H1437; first compound 0.002 µM,0.343
same,relative viability,NCI-H1437; first compound 0.006325 µM,0.495
same,relative viability,NCI-H1437; first compound 0.02 µM,0.249
same,relative viability,NCI-H1437; first compound 0.06325 µM,0.133
same,relative viability,NCI-H1437; first compound 0.2 µM,0.0978
same,relative viability,A549; first compound 0.002 µM,0.536
same,relative viability,A549; first compound 0.006325 µM,0.517
same,relative viability,A549; first compound 0.02 µM,0.152
same,relative viability,A549; first compound 0.06325 µM,0.0437
same,relative viability,A549; first compound 0.2 µM,0.0569
same,relative viability,Calu-6; first compound 0.002 µM,1.04
same,relative viability,Calu-6; first compound 0.006325 µM,0.847
same,relative viability,Calu-6; first compound 0.02 µM,1
same,relative viability,Calu-6; first compound 0.06325 µM,0.119
same,relative viability,Calu-6; first compound 0.2 µM,0.112
same,relative viability,IA-LM; first compound 0.002 µM,0.324
same,relative viability,IA-LM; first compound 0.006325 µM,0.369
same,relative viability,IA-LM; first compound 0.02 µM,0.159
same,relative viability,IA-LM; first compound 0.06325 µM,0.0483
same,relative viability,IA-LM; first compound 0.2 µM,0.0407
same,relative viability,NCI-H1703; first compound 0.002 µM,0.251
same,relative viability,NCI-H1703; first compound 0.006325 µM,0.244
same,relative viability,NCI-H1703; first compound 0.02 µM,0.179
same,relative viability,NCI-H1703; first compound 0.06325 µM,0.179
same,relative viability,NCI-H1703; first compound 0.2 µM,0.165
same,relative viability,NCI-H1355; first compound 0.002 µM,0.411
same,relative viability,NCI-H1355; first compound 0.006325 µM,0.458
same,relative viability,NCI-H1355; first compound 0.02 µM,0.255
same,relative viability,NCI-H1355; first compound 0.06325 µM,0.143
same,relative viability,NCI-H1355; first compound 0.2 µM,0.152
same,relative viability,LCLC-97TM1; first compound 0.002 µM,0.17
same,relative viability,LCLC-97TM1; first compound 0.006325 µM,0.223
same,relative viability,LCLC-97TM1; first compound 0.02 µM,0.113
same,relative viability,LCLC-97TM1; first compound 0.06325 µM,0.103
same,relative viability,LCLC-97TM1; first compound 0.2 µM,0.0923
same,relative viability,NCI-H596; first compound 0.002 µM,0.343
same,relative viability,NCI-H596; first compound 0.006325 µM,0.404
same,relative viability,NCI-H596; first compound 0.06325 µM,0.275
same,relative viability,NCI-H596; first compound 0.2 µM,0.267
same,relative viability,EBC-1; first compound 0.002 µM,0.471
same,relative viability,EBC-1; first compound 0.006325 µM,0.365
same,relative viability,EBC-1; first compound 0.02 µM,0.248
same,relative viability,EBC-1; first compound 0.06325 µM,0.118
same,relative viability,EBC-1; first compound 0.2 µM,0.128
same,relative viability,NCI-H1299; first compound 0.002 µM,0.874
same,relative viability,NCI-H1299; first compound 0.006325 µM,0.698
same,relative viability,NCI-H1299; first compound 0.02 µM,0.767
same,relative viability,NCI-H1299; first compound 0.06325 µM,0.0703
same,relative viability,NCI-H1299; first compound 0.2 µM,0.0666
